Experimental data from PMC8445441, “Elucidating the mechanism by which synthetic helper peptides sensitize Pseudomonas aeruginosa to multiple antibiotics” (PLoS Pathogens, 2021).
Where two headings read alike, the source gives them in different places.

Assays:
P. aeruginosa AUMC-Pa-3 = assay: microbe, parasite or virus in culture; settings: strain AUMC-Pa-3
Method in brief: (§1)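 Growth inhibition was scored by eye after an 18 h, 37 °C incubation of drug-bacteria mixtures in Mueller-Hinton broth. Inoculum suspension held approximately 1 × 10^6 CFU/mL before 1:1 mixing.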

P. aeruginosa AUMC-Pa-4 = assay: microbe, parasite or virus in culture; settings: strain AUMC-Pa-4
Method in brief: as §1

P. aeruginosa AUMC-Pa-5 = assay: microbe, parasite or virus in culture; settings: strain AUMC-Pa-5
Method in brief: as §1

P. aeruginosa AUMC-Pa-6 = assay: microbe, parasite or virus in culture; settings: strain AUMC-Pa-6
Method in brief: as §1

P. aeruginosa PAO1 = assay: microbe, parasite or virus in culture; settings: PAO1
Method in brief: as §1

P. aeruginosa ATCC27853 = assay: microbe, parasite or virus in culture; design: MICa: MIC of the antibiotic / MICac: MIC of the antibiotic in the combination: unit not given beside the values; settings: strain ATCC27853
Protocol: (§2) The MIC tests were performed in triplicate using broth microdilution in accordance with Clinical and Laboratory Standards Institute (CLSI) recommendations (http://iacld.ir/DL/public/CLSI-2018-M100-S28.pdf). Briefly, drugs were two-fold diluted in MHB and mixed with an equal volume of bacterial suspensions containing approximately 1 × 10^6 CFU/mL in 96-well microliter plate. After 18 h incubation at 37 °C, the MIC values were defined as the lowest concentrations of antibiotics with no visible growth of bacteria. […] Otherwise, 1/4 MIC of the peptide was used in the combination. […] If needed, membrane compounds PG, PE, PC, CL or LPS, or membrane stabilizers MgCl2 or CaCl2, or efflux pumps inhibitor PAβN were added to the broth medium to clarify the effect of other substances on the synergy between peptide and antibiotics. All the tests were performed in triplicate.
(§3) The fractional inhibitory concentration (FIC) indices were calculated using the previously described formula FICI = FICa + FICb = MICac/MICa + MICbc/MICb. The FICI was interpreted according to EUCAST [65] as follows: synergistic, FICI≤0.5; additive, 0.5<FICI≤1; indifferent, 1<FICI<2; antagonistic, FICI ≥2. For the FICI calculations, twice the highest concentration tested was used in the cases where the MIC was not reached.

P. aeruginosa NR-31040 = assay: microbe, parasite or virus in culture; design: MICa: MIC of the antibiotic / MICac: MIC of the antibiotic in the combination: unit not given beside the values
Protocol: as §2, §3

P. aeruginosa NR-31041 = assay: microbe, parasite or virus in culture; design: MICa: MIC of the antibiotic / MICac: MIC of the antibiotic in the combination: unit not given beside the values; settings: strain NR-31041
Protocol: as §2, §3

P. aeruginosa PA14 = assay: microbe, parasite or virus in culture; design: MICa: MIC of the antibiotic / MICac: MIC of the antibiotic in the combination: unit not given beside the values; settings: strain PA14
Protocol: as §2, §3

P. aeruginosa PAK = assay: microbe, parasite or virus in culture; design: MICa: MIC of the antibiotic / MICac: MIC of the antibiotic in the combination: unit not given beside the values; settings: strain PAK
Protocol: as §2, §3

P. aeruginosa HM-214 = settings: strain HM-214; antibiotic + D-11 (MICb/MICbc 128/4)
Protocol: as §2, §3

P. aeruginosa AUMC-Pa-1 = settings: strain AUMC-Pa-1; antibiotic + D-11 (MICb/MICbc 128/4)
Protocol: as §2, §3

P. aeruginosa AUMC-Pa-2 = settings: strain AUMC-Pa-2; antibiotic + D-11 (MICb/MICbc 64/4)
Protocol: as §2, §3

[1] = system: clinical P. aeruginosa isolates; assay: microbe, parasite or virus in culture; settings: Pseudomonas aeruginosa, 18 h, antibiotic alone
Method in brief: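 Broth microdilution per CLSI in MHB, two-fold drug dilutions mixed with an equal volume of bacteria at about 1 × 10^6 CFU/mL. After 18 h at 37 °C, MIC taken as the lowest concentration with no visible growth; run in triplicate.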

[2] = antibiotic + D-11 (MICb/MICbc 128/4)
[3] = antibiotic alone, unit not given
[4] = with D-11 at MICbc 4, unit not given
[5] = antibiotic + D-11 (MICb/MICbc 64/4)

With `CN(C)[C@@H]1C(O)=C(C(N)=O)C(=O)[C@@]2(O)C(O)=C3C(=O)c4c(O)c(NC(=O)CN5CCCC5)cc(F)c4C[C@H]3C[C@@H]12` [Eravacycline] the FICI (P. aeruginosa AUMC-Pa-3; [2]) was 0.156, the “MICa: MIC of the antibiotic” value (P. aeruginosa AUMC-Pa-3; [3]) was 8 and the “MICac: MIC of the antibiotic in the combination” value (from here on “MICac: MIC of the antibiotic”) (P. aeruginosa AUMC-Pa-3; [4]) was 1. The FICI (P. aeruginosa AUMC-Pa-4; [2]) was 0.156, the “MICa: MIC of the antibiotic” value (P. aeruginosa AUMC-Pa-4; [3]) was 16 and the “MICac: MIC of the antibiotic” value (P. aeruginosa AUMC-Pa-4; [4]) was 2. The FICI (P. aeruginosa AUMC-Pa-5; [5]) was 1.063, the “MICa: MIC of the antibiotic” value (P. aeruginosa AUMC-Pa-5; [3]) was 8/8 and the “MICac: MIC of the antibiotic” value (P. aeruginosa AUMC-Pa-5; [4]) was 8/8. The FICI (P. aeruginosa AUMC-Pa-6; [5]) was 0.313, the “MICa: MIC of the antibiotic” value (P. aeruginosa AUMC-Pa-6; [3]) was 8 and the “MICac: MIC of the antibiotic” value (P. aeruginosa AUMC-Pa-6; [4]) was 2. The MIC (P. aeruginosa PAO1; Pseudomonas aeruginosa, PAO1, 18 h, read-out: MICa: the MIC of antibiotics, S3 Table, antibiotic alone) was 4 µM, the FICI (P. aeruginosa PAO1; S3 Table, antibiotic + 2 μM D-11) was 0.094 and the “MICac: the MIC for the antibiotic in the combination” value (P. aeruginosa PAO1; S3 Table, with 2 μM D-11) was 0.125 µM. For the same compound, the “MICac: the MIC for the antibiotic in the combination” value (P. aeruginosa PAO1; S3 Table, with 4 μM D-11) was 0.0625 µM, the FICI (P. aeruginosa ATCC27853; antibiotic + D-11 (MICb/MICbc 32/4)) was 0.250 and the “MICa: MIC of the antibiotic” value (P. aeruginosa ATCC27853; [3]) was 8. For the same compound, the “MICac: MIC of the antibiotic” value (P. aeruginosa ATCC27853; [4]) was 1, the MIC (P. aeruginosa NR-31040; Pseudomonas aeruginosa, NR31040, 18 h, read-out: MICa: MIC of the antibiotic) was 8 µM and the FICI (P. aeruginosa NR-31040; strain NR-31040, antibiotic + D-11 (MICb/MICbc 128/4)) was 0.094. For the same compound, the “MICac: MIC of the antibiotic” value (P. aeruginosa NR-31040; strain NR-31040, with D-11 at MICbc 4, unit not given) was 0.5, the FICI (P. aeruginosa NR-31041; [5]) was 0.188 and the “MICa: MIC of the antibiotic” value (P. aeruginosa NR-31041; [3]) was 8. The “MICac: MIC of the antibiotic” value (P. aeruginosa NR-31041; [4]) was 1, the FICI (P. aeruginosa PA14; [2]) was 0.156 and the “MICa: MIC of the antibiotic” value (P. aeruginosa PA14; [3]) was 8. The “MICac: MIC of the antibiotic” value (P. aeruginosa PA14; [4]) was 1, the FICI (P. aeruginosa PAK; [5]) was 0.188 and the “MICa: MIC of the antibiotic” value (P. aeruginosa PAK; [3]) was 8. The “MICac: MIC of the antibiotic” value (P. aeruginosa PAK; [4]) was 1, the FICI (P. aeruginosa HM-214) was 0.281 and the FICI (P. aeruginosa AUMC-Pa-1) was 0.156. It also gave an FICI (P. aeruginosa AUMC-Pa-2) of 0.313, an MIC ([1]; read-out: Antibiotic sensibility (MIC) of clinical P. aeruginosa isolate AUMC-Pa-1, strain AUMC-Pa-1) of 16 µM and an MIC ([1]; read-out: Antibiotic sensibility (MIC) of clinical P. aeruginosa isolate AUMC-Pa-2, strain AUMC-Pa-2) of 8 µM. The MIC ([1]; read-out: Antibiotic sensibility (MIC) of clinical P. aeruginosa isolate AUMC-Pa-3, strain AUMC-Pa-3) was 8 µM, the MIC ([1]; read-out: Antibiotic sensibility (MIC) of clinical P. aeruginosa isolate AUMC-Pa-4, strain AUMC-Pa-4) was 16 µM and the MIC ([1]; read-out: Antibiotic sensibility (MIC) of clinical P. aeruginosa isolate AUMC-Pa-5, strain AUMC-Pa-5) was 8 µM. The MIC ([1]; read-out: Antibiotic sensibility (MIC) of clinical P. aeruginosa isolate AUMC-Pa-6, strain AUMC-Pa-6) was 8 µM, the MIC ([1]; read-out: Antibiotic sensibility (MIC) of clinical P. aeruginosa isolate HM-214, strain HM-214) was 8 µM and the MIC ([1]; read-out: Antibiotic sensibility (MIC) of clinical P. aeruginosa isolate NR-31040, strain NR-31040) was 8 µM. It also gave an MIC ([1]; read-out: Antibiotic sensibility (MIC) of clinical P. aeruginosa isolate NR-31041, strain NR-31041) of 8 µM.
